IC50 data for 49 molecules are collected here from patent US20250304537A1 (Repare Therapeutics Inc., priority 2022, published 2025).

The target in experiment [1] is recombinant human Myt1 (full length PKMYT1) (Homo sapiens (Human), UniProt Q99640). Put plainly: Recombinant human Myt1 kinase assay (ADP-Glo). Type of experiment: biochemical. The note with it: 10 μM ATP. A digest of the protocol:
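ADP-Glo luminescence measured ATP hydrolysis by recombinant full-length PKMYT1 (18 nM) after 60 min at 30 °C with 10 μM ATP. Compounds in 0.5% DMSO were added to the enzyme 15 min before ATP, at 22 °C, in HEPES/MgCl2/MnCl2 buffer. IC50 and percent maximal inhibition were derived.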
(In ADP-Glo the light output rises with the ADP produced.)

The subject of experiment [2] is PKMYT1 (CDK1 pThr14) in FUOV1 cells. As to the kind of experiment: PKMYT1 cell-based activity assay, CDK1 pThr14 AlphaLISA in FUOV1 cells. The note with it: 2 h incubation, read-out: FUOV-1 CDK1 pThr14 IC50. A digest of the protocol:
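IC50 was derived from AlphaLISA signal (excitation 680 nm, emission 615 nm) for phospho-Thr14 CDK1 in lysates. The detection antibodies were rabbit anti-pThr14 and mouse anti-total CDK1, each at 5 nM. FUOV1 ovarian cells were exposed to compound for 2 hours before lysis.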
For orientation: Bead proximity is the source of the signal in Alpha formats.

Where two headings read alike, the source gives them in different places. A value given as a limit tells only on which side of the number the result lay.

recombinant human Myt1 (full length PKMYT1), sequence (Q99640 whole entry): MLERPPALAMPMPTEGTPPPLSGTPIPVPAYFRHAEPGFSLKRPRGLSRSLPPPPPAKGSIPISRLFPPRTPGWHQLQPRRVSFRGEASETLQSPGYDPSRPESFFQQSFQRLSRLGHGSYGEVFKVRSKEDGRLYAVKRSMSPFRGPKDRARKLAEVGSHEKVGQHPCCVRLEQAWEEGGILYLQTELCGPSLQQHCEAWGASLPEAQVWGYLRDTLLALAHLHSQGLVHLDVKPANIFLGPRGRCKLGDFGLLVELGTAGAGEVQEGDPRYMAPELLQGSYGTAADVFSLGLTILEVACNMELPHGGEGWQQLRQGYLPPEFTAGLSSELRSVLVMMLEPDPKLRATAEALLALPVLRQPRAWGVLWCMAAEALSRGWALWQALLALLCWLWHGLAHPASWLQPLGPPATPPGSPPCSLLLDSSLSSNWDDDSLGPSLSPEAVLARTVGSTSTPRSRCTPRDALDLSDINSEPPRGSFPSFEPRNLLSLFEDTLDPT

Consider `Cc1ccc2[nH]ncc2c1-c1nc(-c2cccc(N3CCOCC3)c2)nc(C(N)=O)c1N` [Compound 102], for which the IC50 (as a rule, the concentration that inhibits the measured activity by half) in experiment [1] was 19 nM; in experiment [2] (2 h), 462 nM.
For the molecule `Cc1ccc2[nH]ncc2c1-c1cc(-c2ccncn2)nc(C(N)=O)c1N` [Compound 105], the IC50 in experiment [1] was determined as 12 nM; in experiment [2] (2 h), 551 nM.
On the same counts, the results for `Cc1ccc2[nH]ncc2c1-c1cc(-c2cccnc2)nc(C(N)=O)c1N` [Compound 107] are 11 nM and 495 nM.
`Cc1ccc2[nH]ncc2c1-c1nc(-c2nccs2)nc(C(N)=O)c1N` [Compound 108]: the IC50 in experiment [1] came to 79 nM; in experiment [2] (2 h) it was 7400 nM.
On the same counts, the results for `Cc1ccc2[nH]ncc2c1-c1nc(-c2ccns2)nc(C(N)=O)c1N` [Compound 109] are 23 nM and 717 nM.
On the same counts, the results for `Cc1ccc(-c2nc(C(N)=O)c(N)c(-c3c(C)ccc4[nH]ncc34)n2)s1` [Compound 110] are 23 nM and 883 nM.
Consider `Cc1ccc2[nH]ncc2c1-c1nc(-c2ccc3c(cnn3C)c2)nc(C(N)=O)c1N` [Compound 114], for which the IC50 came to 46 nM in experiment [1] and 3760 nM in experiment [2] (2 h).
On the same counts, the results for `NC(=O)c1nc(-c2ccccc2)nc(-c2c(Cl)ccc3[nH]ncc23)c1N` [Compound 115, 5-amino-6-(5-chloro-1H-indazol-4-yl)-2-phenylpyrimidine-4-carboxamide] are 15 nM and 2230 nM.
On the same counts, the results for `NC(=O)c1nc(-c2ccccc2)nc(-c2ccc(F)c3[nH]ncc23)c1N` [Compound 121] are 49 nM and over 10000 nM.
Taken in the same sequence, the figures for `NC(=O)c1nc(-c2ccccc2)nc(-c2cc(F)cc3[nH]ncc23)c1N` [Compound 122] were 137 nM and 820 nM.
As to `NC(=O)c1nc(-c2ccccc2)nc(-c2cccc3[nH]nc(F)c23)c1N` [Compound 123], the values for the IC50 in experiment [1] and in experiment [2] (2 h) were 99 nM and over 10000 nM, respectively.
Consider `Cc1ccc2[nH]ncc2c1-c1nc(-c2cccc(C#N)c2)nc(C(N)=O)c1N` [Compound 131, 5-amino-2-(3-cyanophenyl)-6-(5-methyl-1H-indazol-4-yl)pyrimidine-4-carboxamide], for which the IC50 in experiment [1] is 22 nM; in experiment [2] (2 h), 1370 nM.
On the same counts, the results for `COc1cc(C)cc(-c2nc(C(N)=O)c(N)c(-c3c(C)ccc4[nH]ncc34)n2)c1` [Compound 143] are 23 nM and 1470 nM.
On the same counts, the results for `Cc1ccc2[nH]ncc2c1-c1nc(-c2ccc(C(=O)O)cc2)nc(C(N)=O)c1N` [Compound 146] are 23 nM and over 10000 nM.
For the molecule `Cc1ccc2[nH]ncc2c1-c1cc(-c2ccnc(OCC(F)(F)F)n2)nc(C(N)=O)c1N` [Compound 159], the results for the IC50 in experiment [1] and in experiment [2] were 6 nM and 268 nM, respectively.
Consider `Cc1ccc2[nH]ncc2c1-c1cc(-c2ccnc(OC(C)C)n2)nc(C(N)=O)c1N` [Compound 160, 3-amino-6-(2-isopropoxypyrimidin-4-yl)-4-(5-methyl-1H-indazol-4-yl)picolinamide], for which the IC50 was determined as 7 nM in experiment [1] and 388 nM in experiment [2] (2 h).
Take `Cc1ccc2[nH]ncc2c1-c1cc(-c2ccnc(OC3COC3)n2)nc(C(N)=O)c1N` [Compound 161]: the IC50 in experiment [1] was 7 nM; in experiment [2] (2 h), 122 nM.
On the same counts, the results for `Cc1ccc2[nH]ncc2c1-c1cc(-c2ccnc(NC3CC3)n2)nc(C(N)=O)c1N` [Compound 163] are 11 nM and 436 nM.
Taken in the same sequence, the figures for `Cc1ccc2[nH]ncc2c1-c1cc(-c2ccnc(OCc3cccnc3)n2)nc(C(N)=O)c1N` [Compound 164] were 14 nM and 473 nM.
On the same counts, the results for `COCCOc1nccc(-c2cc(-c3c(C)ccc4[nH]ncc34)c(N)c(C(N)=O)n2)n1` [Compound 166] are 3 nM and 109 nM.
Consider `CSc1nccc(-c2cc(-c3c(C)ccc4[nH]ncc34)c(N)c(C(N)=O)n2)n1` [Compound 167], for which the IC50 in experiment [1] turned out to be 8 nM; in experiment [2] (2 h), 414 nM.
Consider `Cc1ccc2[nH]ncc2c1-c1cc(-c2ccnc(S(C)(=O)=O)n2)nc(C(N)=O)c1N` [Compound 168], for which the results for the IC50 in experiment [1] and in experiment [2] (2 h) were 29 nM and 7590 nM, respectively.
On the same counts, the results for `Cc1ccc2[nH]ncc2c1-c1cc(-c2ccnc(OC3CCOCC3)n2)nc(C(N)=O)c1N` [Compound 169] are 8 nM and 120 nM.
On the same counts, the results for `Cc1ccc2[nH]ncc2c1-c1cc(-c2ccnc(OC3CCCC3)n2)nc(C(N)=O)c1N` [Compound 170] are 23 nM and 1100 nM.
On the same counts, the results for `Cc1ccc2[nH]ncc2c1-c1cc(-c2ccnc(Oc3ccccc3)n2)nc(C(N)=O)c1N` [Compound 173] are 6 nM and 278 nM.
For `Cc1ccc2[nH]ncc2c1-c1cc(-c2ccnc(N3CCCC3)n2)nc(C(N)=O)c1N` [Compound 174], the results for the IC50 in experiment [1] and in experiment [2] (2 h) were 10 nM and 939 nM, respectively.
`Cc1ccc2[nH]ncc2c1-c1cc(-c2ccnc(Sc3ccccc3)n2)nc(C(N)=O)c1N` [Compound 177, 3-amino-4-(5-methyl-1H-indazol-4-yl)-6-(2-(phenylthio)pyrimidin-4-yl)picolinamide]: the figures for the IC50 in experiment [1] and in experiment [2] (2 h) were 13 nM and 346 nM, respectively.
On the same counts, the results for `Cc1ccc2[nH]ncc2c1-c1cc(-c2cccc(OCc3cccnc3)n2)nc(C(N)=O)c1N` [Compound 179] are 7 nM and 423 nM.
In the case of `Cc1ccc2[nH]ncc2c1-c1cc(-c2cccc(OCCN3CCCC3)n2)nc(C(N)=O)c1N` [Compound 180], the IC50 in experiment [1] is 10 nM; in experiment [2] (2 h) it was 99 nM.
Taken in the same sequence, the figures for `Cc1ccc2[nH]ncc2c1-c1cc(-c2cccc(Oc3cccc(N4CCCC4)c3)n2)nc(C(N)=O)c1N` [Compound 182] were 15 nM and 1600 nM.
Taken in the same sequence, the figures for `Cc1ccc2[nH]ncc2c1-c1cc(-c2cccc(OCCN3CCNCC3)n2)nc(C(N)=O)c1N` [Compound 183] were 13 nM and 281 nM.
On to `Cc1ccc2[nH]ncc2c1-c1cc(-c2cccc(OCc3ncccn3)n2)nc(C(N)=O)c1N` [Compound 184], for which the IC50 in experiment [1] amounted to 6 nM; in experiment [2] (2 h), 51 nM.
On the same counts, the results for `Cc1ccc2[nH]ncc2c1-c1cc(-c2cccc(OCCN3CCOCC3)n2)nc(C(N)=O)c1N` [Compound 185] are 7 nM and 369 nM.
Consider `Cc1ccc2[nH]ncc2c1-c1cc(-c2ccc(-c3nccs3)nc2)nc(C(N)=O)c1N` [Compound 186], for which the IC50 in experiment [1] came out at 47 nM; in experiment [2] (2 h), 1690 nM.
Taken in the same sequence, the figures for `Cc1ccc(O)c(C)c1-c1cc(C(=O)Nc2cccnc2)nc(C(N)=O)c1N` [Compound 188, 5-amino-4-(3-hydroxy-2,6-dimethylphenyl)-N2-(pyridin-3-yl)pyridine-2,6-dicarboxamide] were 8 nM and 266 nM.
Taken in the same sequence, the figures for `Cc1ccc2[nH]ncc2c1-c1cc(-c2ccnc(N)c2)nc(C(N)=O)c1N` [Compound 189] were 21 nM and 1220 nM.
Taken in the same sequence, the figures for `Cc1ccc2[nH]ncc2c1-c1cc(-c2cnccn2)nc(C(N)=O)c1N` [Compound 190] were 20 nM and 860 nM.
As to `Cc1ccc2[nH]ncc2c1-c1cc(-c2cccnn2)nc(C(N)=O)c1N` [Compound 191], the values for the IC50 in experiment [1] and in experiment [2] (2 h) were 42 nM and 390 nM, respectively.
As for `Cc1ccc2[nH]ncc2c1-c1cc(-c2ccnc(OC3CNC3)n2)nc(C(N)=O)c1N` [Compound 194], the figures for the IC50 in experiment [1] and in experiment [2] (2 h) were 10 nM and 476 nM, respectively.
On the same counts, the results for `COCCCOc1nccc(-c2cc(-c3c(C)ccc4[nH]ncc34)c(N)c(C(N)=O)n2)n1` [Compound 197] are 12 nM and 267 nM.
On the same counts, the results for `Cc1ccc2[nH]ncc2c1-c1cc(-c2ccnc(N3CCOCC3)n2)nc(C(N)=O)c1N` [Compound 198] are 9 nM and 970 nM.
On the same counts, the results for `Cc1ccc2[nH]ncc2c1-c1cc(-c2ccnc(Oc3cccnc3)n2)nc(C(N)=O)c1N` [Compound 199] are 6 nM and 137 nM.
Turning to `Cc1ccc2[nH]ncc2c1-c1cc(-c2ccnc(Nc3ccncc3)n2)nc(C(N)=O)c1N` [Compound 200], the values for the IC50 in experiment [1] and in experiment [2] (2 h) were 11 nM and 154 nM, respectively.
On the same counts, the results for `COC[C@H](C)Oc1nccc(-c2cc(-c3c(C)ccc4[nH]ncc34)c(N)c(C(N)=O)n2)n1` [Compound 203] are 11 nM and 332 nM.
As for `COC[C@@H](C)Oc1nccc(-c2cc(-c3c(C)ccc4[nH]ncc34)c(N)c(C(N)=O)n2)n1` [Compound 204], the values for the IC50 in experiment [1] and in experiment [2] (2 h) were 6 nM and 205 nM, respectively.
On the same counts, the results for `Cc1ccc2[nH]ncc2c1-c1cc(-c2ccnc(OCCOC3CC3)n2)nc(C(N)=O)c1N` [Compound 205] are 6 nM and 181 nM.
As to `COCC(Oc1nccc(-c2cc(-c3c(C)ccc4[nH]ncc34)c(N)c(C(N)=O)n2)n1)c1ccccc1` (centres unmarked) [Compound 206], the IC50 amounted to 8 nM in experiment [1] and 554 nM in experiment [2] (2 h).
On the same counts, the results for `COCC(COC)Oc1nccc(-c2cc(-c3c(C)ccc4[nH]ncc34)c(N)c(C(N)=O)n2)n1` [Compound 207] are 9 nM and 144 nM.
On the same counts, the results for `Cc1ccc2[nH]ncc2c1-c1cc(-c2ccnc(O[C@H]3CO[C@H]4OCC[C@H]43)n2)nc(C(N)=O)c1N` [Compound 208] are 6 nM and 106 nM.
